# Assay results published in US20250041387A1, “POLYPEPTIDE SEQUENCE OF KDM6B AND APPLICATION OF KDM6B IN REGULATING AND CONTROLLING FUNCTION OF MESENCHYMAL STEM CELL” (BEIJING STOMATOLOGICAL HOSPITAL, CAPITAL MEDICAL UNIVERSITY, priority 2021, published 2025).
# Several values for one entry are separate records, joined by “and”; a condition that tells them apart may be missing. Identical values can stand only once.
# Legend:
# [1] = system: bone marrow mesenchymal stem cells; assay: β-gal staining and quantification in BMSCs; format: cell-based, human; settings: FIG. 4B, C
# Description: (§1) Prior to the start of the experiment, the GENMED staining solution (Reagent E) in the kit was taken out of the refrigerator at −20° C., and thawed in an ice bath. Then 9.5 mL of GENMED dilution (Reagent D) was added into a 15 ml conical centrifuge tube, added with 500 μL of GENMED staining solution (Reagent E), mixed well, and then preheated in a 37° C. thermostatic sink. The obtained mixture was labeled as GENMED staining working solution.
# [2] = system: defected dorsal skin of mice; assay: Dorsal full-thickness skin defect in mice; format: in vivo, Balb/c mice; set-up: area of the defect region (dorsal skin): unit not given here; settings: for area of the defect region (dorsal skin) / Healing rate (dorsal skin defect): individual mice; for Healing rate (dorsal skin defect): FIG. 18
# Description: Fifteen 8-month-old male Balb/c mice were randomly divided into three groups: PBS group, control group and 114 group, with five mice in each group.
# Before the establishment of the defect model, the mice were anaesthetized by injection of 4% chloral hydrate at 0.2 ml/20 g, and the skin was prepared. A circular full-thickness skin defect with a diameter of 6 mm on the back of the mice was created using a skin punch. On the day of the defect creation, the third day, the seventh day, the tenth day, the fourteenth day, the seventeenth day, and the twenty-first day after the defect creation, an equal amount of 100 μl of PBS, 10 μl/ml control peptide, and 10 μl/ml 114 peptide was separately injected at four equidistant sites at 2 mm from the edge of the defect.
# The defect region was photographed before each injection, and the area of the defect region was calculated by using Image-Pro plus software. The healing rate was calculated as: healing rate=(area of the defect region on day 0-area of the defect region on day 14/21)/area of the defect region on day 0.
# [3] = system: defected palatal mucosa of mice; assay: Palatal mucosa defect in mice; format: in vivo, Balb/c mice; settings: for area of unhealed defected palatal mucosa: individual mice, FIG. 16
# [4] = system: stem cells from apical papilla; assay: β-gal staining and quantification in SCAPs; format: cell-based, human; settings: SCAPs treated with polypeptide, FIG. 8C, D
# Description: as §1
# [5] = system: bone marrow mesenchymal stem cells; assay: ALP activity of BMSCs after osteogenic induction; format: cell-based, human; settings: 3 days of induction in osteogenic culture medium, FIG. 4D
# Description: • (1) Osteogenic culture medium was purchased from Invitrogen, USA. • (2) Quantification of alkaline phosphatase (ALP) activity • 1) After 3 days of osteogenic induction, the culture medium was discarded, and the cells were washed with PBS twice. • 2) The cells were added with 500 μL of lysis buffer, and incubated at 37° C. for 15 minutes. • 3) The cells were scraped, transferred into a 1.5 mL EP tube, and centrifuged at 14000 rpm at 4° C. for 10 minutes. The supernatant was transferred into a new EP tube to measure the protein concentration, and the procedure was the same as that in Western blot. • 4) The capsule from the alkaline phosphatase kit (Stock substrate Sol.) was dissolved with 5 mL of distilled water under vigorous shaking, and mixed well. • 5) 50 μL of ALP buffer was added to 50 μL of Stock substrate Sol to obtain a mixture. 100 μL of the mixture was added to each well in a 96-well plate, then added with 10 μL of sample, and mixed well. A blank well without sample added was set for zero adjustment. • 6) The plate was incubated at 37° C. for 15 minutes, and the OD value was measured at 405 nm.
# (§2) Result of ALP activity was calculated according to Y/incubation time/protein concentration. • (3) Alizarin red staining • 1) After two weeks of osteogenic induction, the culture medium was discarded. The cells were washed three times with PBS pre-cooled at 4° C., and fixed with 70% ethanol at 4° C. for 1 hour. • 2) The cells were washed 2 times with double distilled water, and stained with 40 mM alizarin red solution (pH 4.2) at room temperature for 10 minutes. The staining was observed by naked eyes. • 3) The cells were washed 3 times with double-distilled water. • (4) Determination of Ca^2+ concentration
# [6] = system: minipig periodontitis model with bone defect; assay: Minipig periodontitis model, new bone volume by CBCT three-dimensional reconstruction; format: in vivo, Wuzhishan minipigs; settings: week 12 after injection, 60 μl per side; individual sides; FIG. 9; listed as 114 peptide
# From the text: Method: An experimental minipig periodontitis model was established by creating bone defect and ligating silk threads. Specifically, minipigs were conventionally anaesthetized, and extraorally disinfected. The mandibular first permanent molar of the minipig was selected as the experimental tooth, which was subjected to intra-sulcal incision and vertical incision. The mucoperiosteal flap was opened, the mesia-buccal root of the mandibular first permanent molar of the minipig was exposed by bone removal, and a bone defect with a size of 3 mm×5 mm×7 mm was created. That is, 3 mm×5 mm×7 mm of the mesial proximal alveolar bone was removed, and the mesiobuccal root buccal bone plate and distal alveolar bone (3 mm×5 mm, the gingival depth was level with the mesial proximal surface) were removed. The suture in situ was performed. The experimental tooth neck was ligated with silk threads. […]
# Drug injection treatment was performed 4 weeks after the modeling operation. The effect of bioactive polypeptide 114 on the regeneration and repair capacity of defected tissues mediated by stem cells in minipigs of periodontitis was assessed by comparing the clinical indicators and imaging examination after modeling (−4 w), 4 weeks after modeling without drug injection (0 w) and 3 months after drug treatment (12 w). […]
# [7] = system: senescent bone marrow mesenchymal stem cells; assay: Alizarin red staining and calcium quantification in senescent BMSCs of aged mice; format: cell-based, C57BL/6 mice; settings: 2 weeks of osteogenic induction, FIG. 5C, D
# Description: as §2
# To quantitatively determine the concentration of calcium, the cells were added with 10% cetyl pyridinium chloride for dissolution for 30 minutes at room temperature. The OD value was measured at 562 nm using a spectrophotometer, and the calcium ion concentration of the samples was calculated according to the standard curve of calcium ion concentration, with the total protein concentration as an internal reference.
substance,measurement,setting,value
FITC-(Acp)-ADLTISHCAADVVRAYGRKKRRQRRR [peptide 114],number of β-gal positive cells (quantification),[1],significant reduction
same,number of β-gal positive cells (quantification),[1]; listed as 114 peptide,16.76
same,area of the defect region (dorsal skin),[2]; Day 0,6226 and 6554 and 6917 and 5532 and 4700
same,area of the defect region (dorsal skin),[2]; Day 10,1396 and 3701 and 2313 and 983 and 1816
same,Healing rate (dorsal skin defect),[2]; Day 10,0.7758 and 0.4353 and 0.6656 and 0.8223 and 0.6136
same,area of the defect region (dorsal skin),[2]; Day 14,681 (2×) and 722 and 486 and 715
same,Healing rate (dorsal skin defect),[2]; Day 14,0.8906 and 0.8898 and 0.9015 and 0.9121 and 0.8479
same,healing of defected dorsal skin (observation),"[2]; days 0 and 14, compared to PBS and control peptide groups, FIG. 17",significant healing
same,healing of defected palatal mucosa (observation),"[3]; compared to PBS group and control peptide group, FIG. 15",obviously healed
same,area of unhealed defected palatal mucosa,[3]; day 14,5.782 and 7.254 and 8.231 and 5.52 and 6.401
same,area of unhealed defected palatal mucosa,[3]; day 21,2.259 and 0.3319 and 1.964 and 2.33 and 2.213
same,number of β-gal positive cells (quantification),[4],significant reduction
same,number of β-gal positive cells (quantification),[4]; listed as 114 peptide,3.978
same,ALP activity,[5],promoted
same,ALP activity,[5]; listed as 114-peptide,4.621
same,new bone formation volume,[6],better and higher and 101.99 mm^3 and 80.68 mm^3 and 79.08 mm^3 and 80.48 mm^3 and 76.48 mm^3 and 85.49 mm^3
same,"mineralization capacity, quantification of calcium ion",[7],significantly higher
same,"mineralization capacity, quantification of calcium ion",[7]; listed as 114 peptide,1.251
FITC-(Acp)-KEKSRRVLGNLDLQSYGRKKRRQRRR [peptide 102],number of β-gal positive cells (quantification),[1],significant reduction
same,number of β-gal positive cells (quantification),[1]; listed as 102 peptide,19.33
same,number of β-gal positive cells (quantification),[4],significant reduction
same,number of β-gal positive cells (quantification),[4]; listed as 102 peptide,7.296
same,ALP activity,[5],promoted
same,ALP activity,[5]; listed as 102-peptide,4.218
same,"mineralization capacity, quantification of calcium ion",[7],significantly higher
same,"mineralization capacity, quantification of calcium ion",[7]; listed as 102 peptide,1.154
